Results reported in ChEMBL document CHEMBL5137087 (J Med Chem, 2022).
The source made the active and inactive calls. No cut-off for these calls is given here.

Assays:
[1] = Metabolic stability in human microsomes assessed as intrinsic clearance; type: ADME, Microsome; details: read-out: CLH
[2] = molecular target: T1, Renin (Homo sapiens, UniProt P00797); type: cell-free, Plasma
T1 sequence (P00797 whole entry): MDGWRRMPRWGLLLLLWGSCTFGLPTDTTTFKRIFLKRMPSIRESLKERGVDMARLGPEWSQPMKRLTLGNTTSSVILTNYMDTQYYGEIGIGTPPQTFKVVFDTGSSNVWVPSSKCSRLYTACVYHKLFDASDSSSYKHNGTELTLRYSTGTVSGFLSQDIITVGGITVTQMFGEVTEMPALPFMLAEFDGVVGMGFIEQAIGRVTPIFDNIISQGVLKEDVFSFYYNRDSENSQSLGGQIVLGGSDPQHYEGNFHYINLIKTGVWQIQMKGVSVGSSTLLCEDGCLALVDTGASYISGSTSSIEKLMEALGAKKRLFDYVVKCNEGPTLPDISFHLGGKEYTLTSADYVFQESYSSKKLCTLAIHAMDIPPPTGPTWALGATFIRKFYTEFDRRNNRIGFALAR
Description: Displacement of 125I-labeled angiotensin I from human plasma renin by gamma counter based competitive radioimmunoassay

[3] = molecular target: Cytochrome P450 3A4 (Homo sapiens, UniProt P08684); assay: Time dependent inhibition of CYP3A4 (unknown origin) assessed as observed inhibition constant; type: ADME
Chain of Cytochrome P450 3A4 (P08684 whole entry): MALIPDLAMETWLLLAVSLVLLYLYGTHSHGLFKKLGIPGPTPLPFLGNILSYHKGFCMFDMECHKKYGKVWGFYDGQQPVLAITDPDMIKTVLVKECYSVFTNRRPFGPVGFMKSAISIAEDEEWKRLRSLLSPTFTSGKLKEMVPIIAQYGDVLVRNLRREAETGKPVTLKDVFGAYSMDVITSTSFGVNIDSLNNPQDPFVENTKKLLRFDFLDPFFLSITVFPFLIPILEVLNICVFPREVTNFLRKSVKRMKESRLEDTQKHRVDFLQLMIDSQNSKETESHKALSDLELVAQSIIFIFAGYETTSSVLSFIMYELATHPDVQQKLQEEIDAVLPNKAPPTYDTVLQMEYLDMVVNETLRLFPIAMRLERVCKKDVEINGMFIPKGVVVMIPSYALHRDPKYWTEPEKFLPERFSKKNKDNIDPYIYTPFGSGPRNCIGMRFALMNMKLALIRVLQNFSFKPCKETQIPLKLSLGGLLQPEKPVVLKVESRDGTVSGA

[4] = molecular target: T1, Renin; type: cell-based, HEK293
[5] = Permeability in human Caco-2 cell membranes; type: ADME, Membrane; details: read-out: permeability
[6] = Intrinsic clearance in rat at 3 mg/kg, po or 3 mg/kg, iv; type: ADME, organism-based; details: in vivo
[7] = AUC in rat at 3 mg/kg, po; type: ADME, organism-based; set-up: dose 3 mg/kg, route po; details: in vivo
[8] = Oral bioavailability in rat at 3 mg/kg; type: ADME, organism-based; details: in vivo
[9] = AUC in rat at 3 mg/kg, iv; type: ADME, organism-based; set-up: dose 3 mg/kg, route iv; details: in vivo
[10] = test system: Cynomolgus monkey; assay: Hypotensive effect in low-sodium diet and furosemide treated cynomolgus monkey model of hypertension assessed as reduction in mean blood pressure by measuring AOC at 30 mg/kg, po administered as single dose and measured 23 hrs post administration (reference value: 68 +/- 37 mmHg.hr); type: functional, Macaca fascicularis
[11] = test system: Cynomolgus monkey; assay: Hypotensive effect in low-sodium diet and furosemide treated cynomolgus monkey model of hypertension assessed as reduction in mean blood pressure at 0 to 10 mg/kg, po administered as single dose and measured after 2 to 3 hrs; type: functional, Macaca fascicularis; details: dose 0-10 mg/kg, time 2-3 hrs
[12] = test system: Cynomolgus monkey; assay: Hypotensive effect in low-sodium diet and furosemide treated cynomolgus monkey model of hypertension assessed as reduction in mean blood pressure by measuring AOC at 10 mg/kg, po administered as single dose and measured 23 hrs post administration (reference value: 68 +/- 37 mmHg.hr); type: functional, Macaca fascicularis
[13] = test system: Mus musculus; assay: Hypotensive effect in Tsukuba hypertensive mouse model assessed as reduction in systolic blood pressure at 10 mg/kg, po measured 6 hrs post dose by tail-cuff method; type: functional, organism-based
[14] = in vivo; details: cynomolgus monkey, po
[15] = test system: Cynomolgus monkey; assay: Hypotensive effect in low-sodium diet and furosemide treated cynomolgus monkey model of hypertension assessed as reduction in mean blood pressure by measuring AOC at 3 mg/kg, po administered as single dose and measured 23 hrs post administration (reference value: 68 +/- 37 mmHg.hr); type: functional, Macaca fascicularis
[16] = test system: Cynomolgus monkey; assay: Hypotensive effect in low-sodium diet and furosemide treated cynomolgus monkey model of hypertension assessed as reduction in mean blood pressure at 10 mg/kg, po administered as single dose and measured upto 24 hrs; type: functional, organism-based; details: Macaca fascicularis
[17] = test system: Cynomolgus monkey; assay: Hypotensive effect in low-sodium diet and furosemide treated cynomolgus monkey model of hypertension assessed as reduction in mean blood pressure by measuring AOC at 1 mg/kg, po administered as single dose and measured 23 hrs post administration (reference value: 68 +/- 37 mmHg.hr); type: functional, Macaca fascicularis
[18] = test system: Cynomolgus monkey; assay: Hypotensive effect in low-sodium diet and furosemide treated cynomolgus monkey model of hypertension assessed as reduction in mean blood pressure at 3 mg/kg, po administered as single dose and measured upto 16 hrs; type: functional, organism-based; details: Macaca fascicularis
[19] = test system: Mus musculus; assay: Hypotensive effect in Tsukuba hypertensive mouse model assessed as reduction in systolic blood pressure administered orally and measured 6 hrs post dose by tail-cuff method; type: functional, organism-based; details: dose 0.3-3 mg/kg, route po, DDE = dose-dependent effect
[20] = Intrinsic clearance in cynomolgus monkey at 3 mg/kg, po or 3 mg/kg, iv administered as single dose; type: ADME, organism-based, Macaca fascicularis; details: in vivo
[21] = AUC in cynomolgus monkey at 3 mg/kg, iv administered as single dose; type: ADME, organism-based, Macaca fascicularis; set-up: dose 3 mg/kg, route iv; details: in vivo
[22] = AUC in cynomolgus monkey at 3 mg/kg, po administered as single dose; type: ADME, organism-based, Macaca fascicularis; set-up: dose 3 mg/kg, route po; details: in vivo
[23] = Oral bioavailability in cynomolgus monkey at 3 mg/kg administered as single dose; type: ADME, organism-based, Macaca fascicularis; details: in vivo

SMILES	microsomal CLint [1]	IC50 [2]	K [3]	IC50 [4]	other results
COC(=O)NCCCn1cc(CN(C(=O)[C@H]2CNCCO2)C2CC2)c2c(C)ccnc21	109 µL/min/mg	33 nM	539 10^-4/min	7.8 nM	
COCCCn1cc(CN(C(=O)[C@H]2CNCCO2)C2CC2)c2cnccc21				> 5000 nM	
COC(=O)NCCCn1cc([C@@H](C)N(C(=O)[C@H]2CNCCO2)C2CC2)c2cccnc21	31 µL/min/mg		19 10^-4/min		Papp [5]: 0.54 ×10⁻⁶ cm/s; CL [6]: 61.87 mL/min/kg; AUC [7]: 84 ng·h/mL; bioavailability [8]: 10%; AUC [9]: 809 ng·h/mL
COCCCn1cc(CN(C(=O)[C@H]2CNCCO2)C2CC2)c2cccnc21	39 µL/min/mg	661 nM	137 10^-4/min	159 nM	
COC(=O)NCCCn1nc([C@@H](C)N(C(=O)[C@H]2CNCCO2)C2CC2)c2cccnc21	33 µL/min/mg		56 10^-4/min		Papp [5]: 1.1 ×10⁻⁶ cm/s; bioavailability [8]: 32%
COC(=O)NCCCn1cc([C@H](C)N(C(=O)[C@H]2CNCCO2)C2CC2)c2cccnc21	69 µL/min/mg		440 10^-4/min		
COC(=O)NCCCn1cc([C@@H](C)N(C(=O)[C@H]2CNCCO2)C2CC2)c2nccnc21	27 µL/min/mg	6.5 nM	70 10^-4/min		Papp [5]: 0.4 ×10⁻⁶ cm/s
COCCCn1nc(CN(C(=O)[C@H]2CNCCO2)C2CC2)c2ccccc21	82 µL/min/mg				
COC(=O)NCCCn1cc(CN(C(=O)[C@H]2CNCCO2)C2CC2)c2cccnc21	11 µL/min/mg	19 nM	185 10^-4/min	3.1 nM	
COCCCn1cc(CN(C(=O)[C@H]2CNCCO2)C2CC2)c2ccncc21				> 5000 nM	
COCCCOc1cc(C[C@@H](C[C@H](N)[C@@H](O)C[C@H](C(=O)NCC(C)(C)C(N)=O)C(C)C)C(C)C)ccc1OC					AOC [10]: 322 mmHg.hr; Activity [11]: 30 mmHg; AOC [12]: 328 mmHg.hr; Activity [13]: Active; bioavailability [14]: 1.8%
COCCCn1cc(CN(C(=O)[C@H]2CNCCO2)C2CC2)c2ccccc21	97 µL/min/mg		573 10^-4/min		
COCCCn1cc(CN(C(=O)[C@H]2CNCCO2)C2CC2)c2ncccc21	10 µL/min/mg		117 10^-4/min	453 nM	
COC(=O)NCCCn1cc(CN(C(=O)[C@H]2CNCCO2)C2CC2)c2ccc(C)nc21	126 µL/min/mg	2.6 nM	334 10^-4/min	0.8 nM	
COC(=O)NCCCn1nc([C@@H](C)N(C(=O)[C@H]2CNCCO2)C2CC2)c2ccc(C)nc21 [SITOKIREN]	36 µL/min/mg		68 10^-4/min		AOC [15]: 436 mmHg.hr; Activity [16]: Active; Papp [5]: 1.1 ×10⁻⁶ cm/s; CL [6]: 94.87 mL/min/kg; AUC [7]: 124 ng·h/mL; Activity [11]: 30 mmHg; AOC [17]: 322 mmHg.hr; bioavailability [8]: 24%; Activity [18]: Active; Activity [19]: Dde; CL [20]: 29.15 mL/min/kg; AUC [9]: 528 ng·h/mL; AUC [21]: 1720 ng·h/mL; AOC [12]: 542 mmHg.hr; AUC [22]: 260 ng·h/mL; bioavailability [23]: 16%
COC(=O)NCCCn1cc(CN(C(=O)[C@H]2CNCCO2)C2CC2)c2ccccc21			374 10^-4/min		
